According to ChEMBL document CHEMBL5058642, “Data for DCP probe TP-051” (2022):

Key:
Conditions in all cases: Compound concentration 10.0 uM
[1] = target: B1 bradykinin receptor (Homo sapiens) (UniProt P46663); assay: Inhibition of Bradykinin B1 at 10 µM in the Eurofins-Panlabs radioligand binding assay (Eurofins_assay_212510)
[2] = target: T1, D(4) dopamine receptor (Homo sapiens) (UniProt P21917); assay: Inhibition of Dopamine D4.2 at 10 µM in the Eurofins-Panlabs radioligand binding assay (Eurofins_assay_219900); design: ligand concentration 0.5 nM
T1 sequence (whole entry): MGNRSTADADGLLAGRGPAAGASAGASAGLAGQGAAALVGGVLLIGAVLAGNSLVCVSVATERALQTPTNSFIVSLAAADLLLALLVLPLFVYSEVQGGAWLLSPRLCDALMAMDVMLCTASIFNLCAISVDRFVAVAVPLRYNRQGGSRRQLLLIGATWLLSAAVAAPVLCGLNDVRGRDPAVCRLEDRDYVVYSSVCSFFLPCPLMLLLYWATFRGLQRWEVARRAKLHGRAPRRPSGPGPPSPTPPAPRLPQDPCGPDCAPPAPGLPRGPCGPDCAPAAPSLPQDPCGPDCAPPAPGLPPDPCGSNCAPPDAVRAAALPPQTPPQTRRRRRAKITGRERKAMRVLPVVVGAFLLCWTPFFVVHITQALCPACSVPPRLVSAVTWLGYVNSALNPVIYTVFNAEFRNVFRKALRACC

[3] = organism: Rattus norvegicus; assay: Inhibition of Imidazoline I2, Central at 10 µM in the Eurofins-Panlabs radioligand binding assay (Eurofins_assay_241000); design: ligand concentration 2 nM
[4] = target: Platelet-activating factor receptor (Homo sapiens) (UniProt P25105); assay: Inhibition of Platelet Activating Factor (PAF) at 10 µM in the Eurofins-Panlabs radioligand binding assay (Eurofins_assay_265010)
[5] = target: Cholecystokinin receptor type A (Homo sapiens) (UniProt P32238); assay: Inhibition of Cholecystokinin CCK1 (CCKA) at 10 µM in the Eurofins-Panlabs radioligand binding assay (Eurofins_assay_218020)
[6] = organism: Rattus norvegicus; assay: Inhibition of Glycine, Strychnine-Sensitive at 10 µM in the Eurofins-Panlabs radioligand binding assay (Eurofins_assay_239000)
[7] = target: Progesterone receptor (Homo sapiens) (UniProt P06401); assay: Inhibition of Progesterone PR-B at 10 µM in the Eurofins-Panlabs radioligand binding assay (Eurofins_assay_268020); design: ligand concentration 1.4 nM
[8] = target: Type-2 angiotensin II receptor (Homo sapiens) (UniProt P50052); assay: Angiotensin AT2 Eurofins-Panlabs radioligand binding assay; assay type: protein assay
[9] = organism: Homo sapiens; assay: Estrogen ERbeta Eurofins-Panlabs radioligand binding assay
[10] = organism: Homo sapiens; assay: Prostanoid, Thromboxane A2 (TP) Eurofins-Panlabs radioligand binding assay; design: ligand concentration 5 nM, non-specific ligand with concentration 1 µM SQ-29548, incubation time 30 min, incubation temperature 25 °C
[11] = organism: Rattus norvegicus; assay: Serotonin (5-Hydroxytryptamine) 5-HT1, Non-Selective Eurofins-Panlabs radioligand binding assay; assay type: protein assay
[12] = target: Vasopressin V1a receptor (Homo sapiens) (UniProt P37288); assay: Vasopressin V1A Eurofins-Panlabs radioligand binding assay; design: ligand concentration 0.01 nM
[13] = organism: Homo sapiens; assay: Chemokine CXCR1/2 (IL-8, Non-selective) Eurofins-Panlabs radioligand binding assay
[14] = target: Gamma-aminobutyric acid type B receptor subunit 1 (Homo sapiens) (UniProt Q9UBS5); assay: GABAB1B Eurofins-Panlabs radioligand binding assay
[15] = target: T2, Muscarinic acetylcholine receptor M2 (Homo sapiens) (UniProt P08172); assay: Muscarinic M2 Eurofins-Panlabs radioligand binding assay
T2 sequence (whole entry): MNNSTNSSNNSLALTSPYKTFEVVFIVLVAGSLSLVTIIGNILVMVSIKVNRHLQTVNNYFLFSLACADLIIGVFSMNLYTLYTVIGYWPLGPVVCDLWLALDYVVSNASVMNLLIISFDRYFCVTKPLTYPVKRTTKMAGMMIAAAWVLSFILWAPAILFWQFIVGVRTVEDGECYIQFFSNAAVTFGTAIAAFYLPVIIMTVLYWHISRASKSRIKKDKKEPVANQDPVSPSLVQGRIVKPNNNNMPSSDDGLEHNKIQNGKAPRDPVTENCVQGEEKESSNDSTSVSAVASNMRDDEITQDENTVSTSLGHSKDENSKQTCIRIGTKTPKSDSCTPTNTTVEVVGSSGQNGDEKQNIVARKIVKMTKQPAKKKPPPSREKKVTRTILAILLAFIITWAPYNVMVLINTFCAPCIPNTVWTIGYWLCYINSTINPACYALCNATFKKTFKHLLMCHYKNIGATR

[16] = target: 5-hydroxytryptamine receptor 1A (Homo sapiens) (UniProt P08908)
[17] = target: D(1A) dopamine receptor (Homo sapiens) (UniProt P21728)
[18] = target: D(2) dopamine receptor (Homo sapiens) (UniProt P14416)
[19] = target: T1, D(4) dopamine receptor (Homo sapiens)
[20] = target: Mu-type opioid receptor (Homo sapiens) (UniProt P35372)
[21] = target: Kappa-type opioid receptor (Homo sapiens) (UniProt P41145)
[22] = target: Histamine H2 receptor (Homo sapiens) (UniProt P25021)
[23] = target: Alpha-2B adrenergic receptor (Homo sapiens) (UniProt P18089)
[24] = target: Alpha-2C adrenergic receptor (Homo sapiens) (UniProt P18825)
[25] = target: Beta-1 adrenergic receptor (Homo sapiens) (UniProt P08588)
[26] = target: Muscarinic acetylcholine receptor M5 (Homo sapiens) (UniProt P08912)
[27] = target: Sigma non-opioid intracellular receptor 1 (Homo sapiens) (UniProt Q99720)
[28] = target: Adenosine receptor A3 (Homo sapiens) (UniProt P0DMS8)
[29] = target: D(3) dopamine receptor (Homo sapiens, UniProt P35462)
[30] = target: Endothelin-1 receptor (Homo sapiens) (UniProt P25101)
[31] = target: Sodium-dependent noradrenaline transporter (Homo sapiens) (UniProt P23975)
[32] = target: GABA-A receptor; anion channel (Rattus norvegicus) (UniProt O09028+P15431+P18506+P18508+P19969+P20236+P23574+P23576+P28471+P28473+P30191+P62813+P63079+P63138+Q91ZM7+Q9ES14)

Measured: inhibition

Chain of D(3) dopamine receptor (P35462 whole entry): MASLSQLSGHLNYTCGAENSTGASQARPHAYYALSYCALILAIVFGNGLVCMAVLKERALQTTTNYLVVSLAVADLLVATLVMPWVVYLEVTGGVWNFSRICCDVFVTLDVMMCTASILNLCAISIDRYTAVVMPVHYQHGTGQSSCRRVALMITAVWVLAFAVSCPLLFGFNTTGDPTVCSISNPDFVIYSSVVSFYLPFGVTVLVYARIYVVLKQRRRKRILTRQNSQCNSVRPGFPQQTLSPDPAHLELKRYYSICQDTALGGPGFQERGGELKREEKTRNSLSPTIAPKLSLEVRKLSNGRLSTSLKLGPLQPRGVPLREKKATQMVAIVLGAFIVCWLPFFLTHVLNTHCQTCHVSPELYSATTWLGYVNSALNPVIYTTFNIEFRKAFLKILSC
Chain of Cholecystokinin receptor type A (Homo sapiens) (P32238 whole entry): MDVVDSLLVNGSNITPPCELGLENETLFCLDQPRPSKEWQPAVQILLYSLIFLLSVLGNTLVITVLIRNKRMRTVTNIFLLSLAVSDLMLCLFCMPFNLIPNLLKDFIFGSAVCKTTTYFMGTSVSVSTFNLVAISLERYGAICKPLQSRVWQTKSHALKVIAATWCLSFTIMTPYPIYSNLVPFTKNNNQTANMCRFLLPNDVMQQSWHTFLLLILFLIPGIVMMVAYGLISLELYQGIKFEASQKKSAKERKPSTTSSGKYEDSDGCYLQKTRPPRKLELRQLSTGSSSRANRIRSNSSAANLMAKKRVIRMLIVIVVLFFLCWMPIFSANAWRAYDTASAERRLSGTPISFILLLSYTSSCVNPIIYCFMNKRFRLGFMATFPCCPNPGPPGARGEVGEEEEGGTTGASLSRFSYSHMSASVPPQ
Chain of Alpha-2C adrenergic receptor (Homo sapiens) (P18825 whole entry): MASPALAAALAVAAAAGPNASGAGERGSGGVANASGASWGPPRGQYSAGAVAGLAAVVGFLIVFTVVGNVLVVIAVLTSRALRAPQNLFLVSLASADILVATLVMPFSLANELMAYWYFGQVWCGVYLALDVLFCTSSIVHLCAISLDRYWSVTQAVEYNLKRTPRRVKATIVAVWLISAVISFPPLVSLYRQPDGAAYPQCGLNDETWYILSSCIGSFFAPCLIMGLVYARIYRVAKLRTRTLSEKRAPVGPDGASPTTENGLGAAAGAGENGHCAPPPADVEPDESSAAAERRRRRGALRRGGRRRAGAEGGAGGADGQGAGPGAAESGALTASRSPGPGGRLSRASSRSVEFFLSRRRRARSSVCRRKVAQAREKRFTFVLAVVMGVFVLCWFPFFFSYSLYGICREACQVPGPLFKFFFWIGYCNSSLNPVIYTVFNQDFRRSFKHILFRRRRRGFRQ
Chain of Kappa-type opioid receptor (Homo sapiens) (P41145 whole entry): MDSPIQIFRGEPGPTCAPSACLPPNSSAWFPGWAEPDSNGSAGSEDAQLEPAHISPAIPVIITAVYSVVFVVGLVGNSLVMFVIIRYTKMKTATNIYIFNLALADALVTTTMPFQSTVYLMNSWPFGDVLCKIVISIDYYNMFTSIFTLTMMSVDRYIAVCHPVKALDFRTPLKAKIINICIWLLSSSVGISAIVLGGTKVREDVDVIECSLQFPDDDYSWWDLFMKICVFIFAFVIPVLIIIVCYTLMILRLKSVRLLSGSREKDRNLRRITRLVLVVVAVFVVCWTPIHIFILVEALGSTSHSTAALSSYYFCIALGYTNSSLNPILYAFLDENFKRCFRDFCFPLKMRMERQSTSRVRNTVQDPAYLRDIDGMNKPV
Chain of Adenosine receptor A3 (Homo sapiens) (P0DMS8 whole entry): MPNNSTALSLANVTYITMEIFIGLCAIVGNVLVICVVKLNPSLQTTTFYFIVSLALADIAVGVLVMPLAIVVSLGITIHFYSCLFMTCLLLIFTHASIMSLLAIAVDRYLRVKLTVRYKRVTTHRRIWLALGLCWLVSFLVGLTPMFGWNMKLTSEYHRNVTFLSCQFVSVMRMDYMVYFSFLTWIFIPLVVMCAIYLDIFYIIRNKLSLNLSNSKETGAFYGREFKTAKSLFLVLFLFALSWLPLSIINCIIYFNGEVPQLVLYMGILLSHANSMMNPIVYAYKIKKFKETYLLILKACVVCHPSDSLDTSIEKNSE
Chain of Endothelin-1 receptor (Homo sapiens) (P25101 whole entry): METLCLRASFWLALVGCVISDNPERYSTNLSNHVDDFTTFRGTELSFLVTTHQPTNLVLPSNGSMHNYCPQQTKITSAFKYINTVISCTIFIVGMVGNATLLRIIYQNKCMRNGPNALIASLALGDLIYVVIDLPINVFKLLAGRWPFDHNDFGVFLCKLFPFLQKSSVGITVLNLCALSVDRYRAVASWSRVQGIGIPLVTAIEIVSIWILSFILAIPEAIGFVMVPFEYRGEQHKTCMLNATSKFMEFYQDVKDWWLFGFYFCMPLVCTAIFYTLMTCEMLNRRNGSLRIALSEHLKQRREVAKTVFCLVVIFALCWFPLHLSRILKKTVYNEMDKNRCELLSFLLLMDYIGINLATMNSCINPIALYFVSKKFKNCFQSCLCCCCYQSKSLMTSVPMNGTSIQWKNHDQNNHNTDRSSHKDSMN
Chain of D(2) dopamine receptor (Homo sapiens) (P14416 whole entry): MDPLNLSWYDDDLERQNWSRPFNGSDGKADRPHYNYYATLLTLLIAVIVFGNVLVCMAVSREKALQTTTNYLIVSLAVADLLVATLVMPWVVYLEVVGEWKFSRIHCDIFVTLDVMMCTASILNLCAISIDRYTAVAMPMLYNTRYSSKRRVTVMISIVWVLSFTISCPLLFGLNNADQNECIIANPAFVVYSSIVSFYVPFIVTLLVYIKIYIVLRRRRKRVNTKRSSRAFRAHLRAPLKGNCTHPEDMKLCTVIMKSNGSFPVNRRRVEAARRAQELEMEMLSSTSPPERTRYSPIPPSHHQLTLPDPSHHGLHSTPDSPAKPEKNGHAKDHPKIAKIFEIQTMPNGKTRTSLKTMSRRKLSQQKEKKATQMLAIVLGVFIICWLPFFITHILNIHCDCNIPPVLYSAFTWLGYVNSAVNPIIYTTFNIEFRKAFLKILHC
Chain of B1 bradykinin receptor (Homo sapiens) (P46663 whole entry): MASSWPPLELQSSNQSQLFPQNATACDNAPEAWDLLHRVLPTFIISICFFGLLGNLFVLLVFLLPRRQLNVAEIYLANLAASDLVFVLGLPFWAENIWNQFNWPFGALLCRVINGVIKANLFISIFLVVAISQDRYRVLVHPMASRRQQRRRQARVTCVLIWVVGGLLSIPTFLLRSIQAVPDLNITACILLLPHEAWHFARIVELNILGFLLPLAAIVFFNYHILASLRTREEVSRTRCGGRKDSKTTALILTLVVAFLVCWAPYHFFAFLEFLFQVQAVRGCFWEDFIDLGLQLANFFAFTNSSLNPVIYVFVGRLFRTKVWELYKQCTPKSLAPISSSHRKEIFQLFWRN
Chain of Gamma-aminobutyric acid type B receptor subunit 1 (Homo sapiens) (Q9UBS5 whole entry): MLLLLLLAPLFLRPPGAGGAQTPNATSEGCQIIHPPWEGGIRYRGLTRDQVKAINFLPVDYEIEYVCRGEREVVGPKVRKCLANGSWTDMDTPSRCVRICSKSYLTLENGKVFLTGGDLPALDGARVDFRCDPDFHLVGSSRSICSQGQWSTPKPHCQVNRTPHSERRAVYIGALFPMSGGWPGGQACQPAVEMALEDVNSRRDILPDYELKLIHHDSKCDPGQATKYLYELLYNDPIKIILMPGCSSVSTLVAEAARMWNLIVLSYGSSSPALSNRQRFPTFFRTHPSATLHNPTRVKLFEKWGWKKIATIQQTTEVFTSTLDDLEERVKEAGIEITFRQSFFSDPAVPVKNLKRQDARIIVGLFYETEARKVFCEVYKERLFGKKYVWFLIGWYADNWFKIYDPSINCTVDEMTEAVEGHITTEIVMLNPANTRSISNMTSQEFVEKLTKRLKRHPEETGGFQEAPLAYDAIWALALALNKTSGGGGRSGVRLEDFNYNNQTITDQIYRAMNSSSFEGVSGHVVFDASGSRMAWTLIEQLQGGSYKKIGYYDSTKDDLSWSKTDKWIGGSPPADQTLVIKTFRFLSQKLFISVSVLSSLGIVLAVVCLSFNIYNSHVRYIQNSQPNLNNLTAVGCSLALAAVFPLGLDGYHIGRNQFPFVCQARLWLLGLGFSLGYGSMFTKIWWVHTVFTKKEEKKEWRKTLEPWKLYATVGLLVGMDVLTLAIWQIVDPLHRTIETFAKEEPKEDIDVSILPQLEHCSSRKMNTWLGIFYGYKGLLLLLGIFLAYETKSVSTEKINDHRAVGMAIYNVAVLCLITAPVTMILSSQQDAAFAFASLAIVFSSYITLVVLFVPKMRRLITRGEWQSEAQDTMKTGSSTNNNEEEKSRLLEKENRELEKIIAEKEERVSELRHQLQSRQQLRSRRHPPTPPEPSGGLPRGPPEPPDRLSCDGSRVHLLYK
Chain of 5-hydroxytryptamine receptor 1A (Homo sapiens) (P08908 whole entry): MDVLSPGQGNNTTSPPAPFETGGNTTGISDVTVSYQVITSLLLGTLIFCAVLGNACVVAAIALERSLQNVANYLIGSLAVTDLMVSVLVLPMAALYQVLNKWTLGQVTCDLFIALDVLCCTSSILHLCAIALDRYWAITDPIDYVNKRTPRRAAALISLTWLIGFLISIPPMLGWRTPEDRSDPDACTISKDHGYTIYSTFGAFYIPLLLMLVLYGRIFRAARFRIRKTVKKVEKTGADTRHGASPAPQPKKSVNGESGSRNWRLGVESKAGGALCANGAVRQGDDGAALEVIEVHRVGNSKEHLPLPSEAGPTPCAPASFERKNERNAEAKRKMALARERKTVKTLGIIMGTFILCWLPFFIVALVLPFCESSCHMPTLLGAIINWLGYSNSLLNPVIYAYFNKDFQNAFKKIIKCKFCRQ
Chain of Sigma non-opioid intracellular receptor 1 (Homo sapiens) (Q99720 whole entry): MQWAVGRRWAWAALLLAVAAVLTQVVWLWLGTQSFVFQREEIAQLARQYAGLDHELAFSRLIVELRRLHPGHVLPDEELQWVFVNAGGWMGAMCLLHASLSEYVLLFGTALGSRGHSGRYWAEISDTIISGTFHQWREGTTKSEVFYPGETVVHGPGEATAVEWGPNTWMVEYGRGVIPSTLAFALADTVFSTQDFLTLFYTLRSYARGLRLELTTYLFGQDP

Cc1cc(OC2CCS(=O)(=O)CC2)cc(C)c1-c1cccc(COc2ccc(CCC(=O)O)c(F)c2)c1
active: [10] 60% | [19] 85.4%
inactive: [1] 14% | [2] 9% | [3] -7% | [4] 4% | [5] 4% | [6] 7% | [7] 10% | [8] -4% | [9] 20% | [11] 16% | [12] 0% | [13] 3% | [14] 1% | [15] 4% | [16] 1.37% | [17] 13.7% | [18] 16.6% | [20] 1.32% | [21] 10.2% | [22] 5.95% | [23] 13.1% | [24] 5.47% | [25] 14.4% | [26] 20.4% | [27] 8.9% | [28] 5% | [29] -7% | [30] -2% | [31] 22% | [32] 21%

Cc1cc(OC2CCS(=O)(=O)CC2)cc(C)c1-c1cccc(COc2ccc(C(=O)O)c(F)c2)c1
inactive: [1] 19% | [2] 6% | [3] 3% | [4] 2% | [5] -9% | [6] 5% | [7] 6% | [8] 1% | [9] 8% | [10] 28% | [11] -9% | [12] -4% | [13] 4% | [14] 10% | [15] -3% | [16] -6.09% | [17] 20.9% | [18] 8.6% | [19] 7.27% | [20] -7.84% | [21] 4.04% | [22] 7.66% | [23] -0.21% | [24] -4.04% | [25] -0.49% | [26] -4.74% | [27] 16.7% | [28] 0% | [29] 4% | [30] -2% | [31] 5% | [32] 14%
